For the assay, the target named is Glutathione S-transferase omega-1 (Homo sapiens) (UniProt P78417). Put plainly: IC50 of human GSTO1 inhibition by gel ABPP – biochemical, SE-Rh probe, in-gel fluorescence, powder samples, late-stage follow-up (AID 463081). Particulars: recombinant GSTO1, SE-Rh probe labeling.
Chain of Glutathione S-transferase omega-1 (Homo sapiens) (P78417 whole entry, looked up): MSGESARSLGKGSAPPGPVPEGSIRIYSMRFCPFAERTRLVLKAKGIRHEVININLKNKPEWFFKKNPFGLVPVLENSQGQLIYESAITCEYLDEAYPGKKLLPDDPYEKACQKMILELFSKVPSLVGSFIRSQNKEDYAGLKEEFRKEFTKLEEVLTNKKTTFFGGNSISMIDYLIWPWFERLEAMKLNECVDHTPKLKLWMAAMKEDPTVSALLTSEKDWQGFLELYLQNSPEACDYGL

As a reminder, the IC50 is the point on the concentration scale where inhibition reaches its midpoint. As for `COc1ccc(C(C(=O)NC2CCCCC2)N(C(=O)CCl)c2ccc(Cl)cc2)cc1` (stereo unspecified), the 50% inhibitory concentration (IC50) is 22 nM.

Values taken from PubChem BioAssay AID463081 (The Scripps Research Institute Molecular Screening Center, 2010).
